Results published in patent US11826351B2, “Compounds useful as kinase inhibitors” (Loxo Oncology, Inc., priority 2015, dated 2023).

Tests used:
[1] = target: T1, Recombinant BTK^WT kinase (Homo sapiens, UniProt Q06187); experiment: BTK WT binding affinity (LanthaScreen TR-FRET); settings: Kinase Tracer 236, 5 h incubation
T1 construct: purchased Invitrogen
Procedure, shortened: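 IC50 obtained by variable-slope fit of TR-FRET signal (ex 340 nm; em 615 and 665 nm) versus inhibitor concentration. Reaction held for 5 h in LanthaScreen Kinase Buffer A with 2.5 nM His-tagged BTK^WT, 15 nM Kinase Tracer 236 and 2 nM Eu anti-His antibody.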

[2] = target: T2, Recombinant BTK^C481S kinase (Homo sapiens, UniProt Q06187, C481S); experiment: BTK C481S binding affinity (LanthaScreen TR-FRET); settings: Kinase Tracer 236, 5 h incubation
T2 construct: purchased SignalChem
Procedure, shortened: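 BTK C481S tracer-displacement TR-FRET: 5 nM His-tagged kinase, 2 nM Eu anti-His antibody and 30 nM Kinase Tracer 236 incubated with titrated inhibitor for 5 h in Kinase Buffer A. Read at 340 nm excitation, 615/665 nm emission; IC50 from variable-slope log[inhibitor]–response fit.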

[3] = target: T3, Recombinant EGFR (Homo sapiens, UniProt P00533); experiment: EGFR binding affinity (LanthaScreen TR-FRET); settings: Kinase Tracer 199, 5 h incubation
T3 construct: purchased Invitrogen
Procedure, shortened: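 Compounds were titrated against recombinant EGFR and binding was followed by LanthaScreen time-resolved FRET.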

[4] = tested on: OCI-Ly10 human DLBCL cells; experiment: OCI-Ly10 anti-proliferative activity (Resazurin); assay type: cell-based; settings: Homo sapiens, OCI-Ly10, 72 h, OCI-Ly10 cells, 72 h compound treatment, Resazurin; read-out: Proliferation Assay OCI-Ly10-20% FBS
Procedure, shortened: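 A separate untreated plate gave the Day 0 reading, measured by Resazurin fluorescence at 590 nm after 5 h. The average Day 0 value was subtracted from each treated well, and results were expressed as percent of DMSO control. IC50 values came from a log[Inhibitor] vs response Variable Slope fit in Graphpad prism.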

T2 sequence (Q06187 whole entry C481S): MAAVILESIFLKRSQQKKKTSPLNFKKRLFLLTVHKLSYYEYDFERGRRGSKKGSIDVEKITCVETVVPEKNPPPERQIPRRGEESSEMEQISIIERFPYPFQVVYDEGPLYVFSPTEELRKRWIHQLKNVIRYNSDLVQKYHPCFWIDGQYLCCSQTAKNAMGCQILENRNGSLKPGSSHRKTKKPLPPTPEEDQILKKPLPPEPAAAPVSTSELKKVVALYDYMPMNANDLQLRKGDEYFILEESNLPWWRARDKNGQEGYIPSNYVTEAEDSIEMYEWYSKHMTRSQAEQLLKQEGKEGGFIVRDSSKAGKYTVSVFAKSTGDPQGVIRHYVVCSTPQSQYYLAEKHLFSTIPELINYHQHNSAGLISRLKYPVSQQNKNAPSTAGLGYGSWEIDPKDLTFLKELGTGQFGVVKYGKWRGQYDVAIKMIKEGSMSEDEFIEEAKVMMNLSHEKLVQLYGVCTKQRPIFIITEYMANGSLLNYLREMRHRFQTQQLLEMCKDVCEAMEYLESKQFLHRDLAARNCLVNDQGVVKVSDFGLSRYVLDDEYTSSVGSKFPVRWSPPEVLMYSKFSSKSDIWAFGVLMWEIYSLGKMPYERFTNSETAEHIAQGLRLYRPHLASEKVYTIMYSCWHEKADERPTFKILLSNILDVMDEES
T3 sequence (P00533 25-1210): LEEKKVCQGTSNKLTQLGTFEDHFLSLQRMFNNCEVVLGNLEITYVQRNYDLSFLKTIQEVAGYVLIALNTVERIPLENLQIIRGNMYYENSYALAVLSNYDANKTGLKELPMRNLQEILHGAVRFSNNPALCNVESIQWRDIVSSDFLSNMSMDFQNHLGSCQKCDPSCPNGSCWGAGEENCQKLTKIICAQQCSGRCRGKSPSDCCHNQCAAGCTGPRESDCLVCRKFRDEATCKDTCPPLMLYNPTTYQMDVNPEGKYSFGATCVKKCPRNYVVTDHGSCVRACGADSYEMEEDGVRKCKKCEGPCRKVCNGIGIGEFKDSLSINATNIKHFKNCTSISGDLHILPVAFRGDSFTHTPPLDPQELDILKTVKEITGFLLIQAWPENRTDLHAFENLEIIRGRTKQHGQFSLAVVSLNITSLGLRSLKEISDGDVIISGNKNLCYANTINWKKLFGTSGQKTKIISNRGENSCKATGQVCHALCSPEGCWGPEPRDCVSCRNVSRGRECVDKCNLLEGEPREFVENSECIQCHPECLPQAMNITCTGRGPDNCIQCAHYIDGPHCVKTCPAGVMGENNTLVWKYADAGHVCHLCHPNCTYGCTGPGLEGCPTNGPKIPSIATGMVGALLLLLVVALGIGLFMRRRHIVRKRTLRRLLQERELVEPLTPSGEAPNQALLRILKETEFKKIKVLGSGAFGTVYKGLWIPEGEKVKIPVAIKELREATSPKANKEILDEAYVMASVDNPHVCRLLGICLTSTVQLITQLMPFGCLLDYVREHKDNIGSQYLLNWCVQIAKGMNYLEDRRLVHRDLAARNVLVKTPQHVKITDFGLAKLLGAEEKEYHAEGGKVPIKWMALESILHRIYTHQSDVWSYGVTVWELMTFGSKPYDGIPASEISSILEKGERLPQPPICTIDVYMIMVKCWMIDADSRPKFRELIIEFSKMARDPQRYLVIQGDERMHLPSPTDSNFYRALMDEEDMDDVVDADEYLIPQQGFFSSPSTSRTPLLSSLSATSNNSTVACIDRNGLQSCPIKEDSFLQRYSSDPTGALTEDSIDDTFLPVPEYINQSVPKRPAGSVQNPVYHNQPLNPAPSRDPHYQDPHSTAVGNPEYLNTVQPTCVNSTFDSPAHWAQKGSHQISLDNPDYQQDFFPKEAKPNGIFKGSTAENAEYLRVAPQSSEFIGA
T1 sequence (Q06187 whole entry): as the sequence (Q06187 whole entry C481S) above, with S481C counted along it

SMILES | IC50 [1] [nM] | IC50 [2] [nM] | IC50 [3] [nM] | IC50 [4] [nM]
COc1ccccc1C(=O)NCc1ccc(-c2nn(C3CCCC3)c(N)c2C(N)=O)cc1C [Example 62, 5-amino-1-cyclopentyl-3-[4-[[(2-methoxybenzoyl)amino]methyl]-3-methyl-phenyl]pyrazole-4-carboxamide] | < 10 | < 10 | 100 to 1000 | 10 to 100
COc1ccccc1C(=O)NCc1ccc(-c2nn(C3CC(O)c4ccccc43)c(N)c2C(N)=O)cc1 (stereo not shown) [Example 63, 5-amino-1-(3-hydroxyindan-1-yl)-3-[4-[[(2-methoxybenzoyl)amino]methyl]phenyl]pyrazole-4-carboxamide] | < 10 | < 10 | 100 to 1000 | 10 to 100
COc1ccccc1C(=O)NCc1ccc(-c2nn(C3CCOCC3)c(N)c2C(N)=O)cc1 [Example 64, 5-amino-3-[4-[[(2-methoxybenzoyl)amino]methyl]phenyl]-1-tetrahydropyran-4-yl-pyrazole-4-carboxamide] | < 10 | < 10 | 100 to 1000 | 10 to 100
COc1ccccc1C(=O)NCc1ccc(-c2nn(C3CCC(O)(C(F)(F)F)CC3)c(N)c2C(N)=O)cc1 (stereo not shown) [Example 65, 5-amino-1-[4-hydroxy-4-(trifluoromethyl)cyclohexyl]-3-[4-[[(2-methoxybenzoyl)amino]methyl]phenyl]pyrazole-4-carboxamide] | < 10 | < 10 | 100 to 1000 | 10 to 100
COc1ccccc1C(=O)NCc1ccc(-c2nn(C(CO)CCl)c(N)c2C(N)=O)cc1 (stereo not shown) [Example 66, 5-amino-1-[1-(chloromethyl)-2-hydroxy-ethyl]-3-[4-[[(2-methoxybenzoyl)amino]methyl]phenyl]pyrazole-4-carboxamide] | 10 to 100 | < 10 | 1000 to 10000 | 1000 to 10000
COc1ccccc1C(=O)NCc1ccc(-c2nn(C3CCC(F)(F)CC3)c(N)c2C(N)=O)cc1 [Example 68, 5-amino-1-(4,4-difluorocyclohexyl)-3-[4-[[(2-methoxybenzoyl)amino]methyl]phenyl]pyrazole-4-carboxamide] | < 10 | < 10 | 100 to 1000 | 10 to 100
COc1ccccc1C(=O)NCc1ccc(-c2nn(C3CCC4(CC3)COC4)c(N)c2C(N)=O)cc1 [Example 71, 5-amino-3-[4-[[(2-methoxybenzoyl)amino]methyl]phenyl]-1-(2-oxaspiro[3.5]nonan-7-yl)pyrazole-4-carboxamide] | < 10 | < 10 | 100 to 1000 | 10 to 100
COc1ccccc1C(=O)NCc1ccc(-c2nn(C3CCCC3)c(NC(C)C)c2C(N)=O)cc1 [Example 72, 1-cyclopentyl-5-(isopropylamino)-3-[4-[[(2-methoxybenzoyl)amino]methyl]phenyl]pyrazole-4-carboxamide] | 10 to 100 | < 10 | 1000 to 10000 | 100 to 1000
CCNc1c(C(N)=O)c(-c2ccc(CNC(=O)c3ccccc3OC)cc2)nn1C1CCCC1 [Example 73, 1-cyclopentyl-5-(ethylamino)-3-[4-[[(2-methoxybenzoyl)amino]methyl]phenyl]pyrazole-4-carboxamide] | < 10 | < 10 | 100 to 1000 | 10 to 100
COc1ccc(F)cc1C(=O)NCc1ccc(-c2nn(C3CCCC3)c(N)c2C(N)=O)cc1F [Example 76, 5-amino-1-cyclopentyl-3-[3-fluoro-4-[[(5-fluoro-2-methoxy-benzoyl)amino]methyl]phenyl]pyrazole-4-carboxamide] | < 10 | < 10 | 100 to 1000 | 10 to 100
COc1ccccc1C(=O)NCc1ccc(-c2nn(C3CCCC3)c(Cl)c2C(N)=O)cc1 [Example 78, 5-chloro-1-cyclopentyl-3-[4-[[(2-methoxybenzoyl)amino]methyl]phenyl]pyrazole-4-carboxamide] | 10 to 100 | 10 to 100 | > 10000 | 1000 to 10000
COc1ccccc1C(=O)NC(C)c1ccc(-c2nn(C3CCCC3)c(N)c2C(N)=O)cc1 (stereo not shown) [Example 79, 5-amino-1-cyclopentyl-3-[4-[1-[(2-methoxybenzoyl)amino]ethyl]phenyl]pyrazole-4-carboxamide] | 100 to 1000 | 100 to 1000 | 1000 to 10000 | 1000 to 10000
COc1ccccc1C(=O)NCc1ccc(-c2nn(C3CCCOC3)c(N)c2C(N)=O)cc1 (stereo not shown) [Example 80, 5-amino-3-[4-[[(2-methoxybenzoyl)amino]methyl]phenyl]-1-tetrahydropyran-3-yl-pyrazole-4-carboxamide] | < 10 | < 10 | 100 to 1000 | 10 to 100
COc1ccccc1C(=O)NCc1ccc(-c2nn(-c3cccc(F)c3F)c(N)c2C(N)=O)cc1 [Example 81, 5-amino-1-(2,3-difluorophenyl)-3-[4-[[(2-methoxybenzoyl)amino]methyl]phenyl]pyrazole-4-carboxamide] | < 10 | < 10 | 100 to 1000 | 10 to 100
COc1ccccc1C(=O)NCc1ccc(-c2nn(C3CC(C)(C)OC3(C)C)c(N)c2C(N)=O)cc1 (stereo not shown) [Example 82, 5-amino-3-[4-[[(2-methoxybenzoyl)amino]methyl]phenyl]-1-(2,2,5,5-tetramethyltetrahydrofuran-3-yl)pyrazole-4-carboxamide] | 10 to 100 | 10 to 100 | 1000 to 10000 | 1000 to 10000
COc1ccccc1C(=O)NCc1ccc(-c2nn([C@H]3CCOC3)c(N)c2C(N)=O)cc1 [Example 83a, 5-amino-3-[4-[[(2-methoxybenzoyl)amino]methyl]phenyl]-1-[(3S)-tetrahydrofuran-3-yl]pyrazole-4-carboxamide] | < 10 | < 10 | 1000 to 10000 | 100 to 1000
COc1ccccc1C(=O)NCc1ccc(-c2nn([C@@H]3CCOC3)c(N)c2C(N)=O)cc1 [Example 83b, 5-amino-3-[4-[[(2-methoxybenzoyl)amino]methyl]phenyl]-1-[(3R)-tetrahydrofuran-3-yl]pyrazole-4-carboxamide] | < 10 | < 10 | 1000 to 10000 | 10 to 100
CNc1c(C(N)=O)c(-c2ccc(CNC(=O)c3ccccc3OC)cc2)nn1C1CCC1 [Example 87, 1-cyclobutyl-3-[4-[[(2-methoxybenzoyl)amino]methyl]phenyl]-5-(methylamino)pyrazole-4-carboxamide] | < 10 | < 10 | 100 to 1000 | 100 to 1000
COc1ccc(F)cc1C(=O)NCc1ccc(-c2nn(C3CCCC3)c(N)c2C(N)=O)cc1 [Example 88, 5-amino-1-cyclopentyl-3-[4-[[(5-fluoro-2-methoxy-benzoyl)amino]methyl]phenyl]pyrazole-4-carboxamide] | < 10 | < 10 | 100 to 1000 | < 10
COc1ccccc1C(=O)NCc1ccc(-c2nn(C3CCOCC3(C)C)c(N)c2C(N)=O)cc1 (stereo not shown) [Example 89, 5-amino-1-(3,3-dimethyltetrahydropyran-4-yl)-3-[4-[[(2-methoxybenzoyl)amino]methyl]phenyl]pyrazole-4-carboxamide] | 10 to 100 | 10 to 100 | 1000 to 10000 | 1000 to 10000
COc1ccccc1C(=O)NCc1ccc(-c2nn(C3CC(C)(C)OC(C)(C)C3)c(N)c2C(N)=O)cc1 [Example 90, 5-amino-3-[4-[[(2-methoxybenzoyl)amino]methyl]phenyl]-1-(2,2,6,6-tetramethyltetrahydropyran-4-yl)pyrazole-4-carboxamide] | 10 to 100 | < 10 | 1000 to 10000 | 100 to 1000
CNc1c(C(N)=O)c(-c2ccc(CNC(=O)c3ccccc3OC)cc2)nn1C1CCOCC1 [Example 91, 3-[4-[[(2-methoxybenzoyl)amino]methyl]phenyl]-5-(methylamino)-1-tetrahydropyran-4-yl-pyrazole-4-carboxamide] | 10 to 100 | < 10 | 1000 to 10000 | 100 to 1000
COc1ccc(C)cc1C(=O)NCc1ccc(-c2nn(C3CCCC3)c(N)c2C(N)=O)cc1F [Example 92, 5-amino-1-cyclopentyl-3-[3-fluoro-4-[[(2-methoxy-5-methyl-benzoyl)amino]methyl]phenyl]pyrazole-4-carboxamide] | < 10 | < 10 | > 10000 | 10 to 100
COc1ccccc1C(=O)NCc1ccc(-c2nn(C3CCCC3)c(N)c2C(N)=O)cc1F [Example 93, 5-amino-1-cyclopentyl-3-[3-fluoro-4-[[(2-methoxybenzoyl)amino]methyl]phenyl]pyrazole-4-carboxamide] | < 10 | < 10 | 100 to 1000 | 10 to 100
CNc1c(C(N)=O)c(-c2ccc(CNC(=O)c3ccccc3OC)cc2)nn1C1CCOC1 (stereo not shown) [Example 97, 3-[4-[[(2-methoxybenzoyl)amino]methyl]phenyl]-5-(methylamino)-1-tetrahydrofuran-3-yl-pyrazole-4-carboxamide] | 10 to 100 | < 10 | 1000 to 10000 | 1000 to 10000
